{"source": "paper PMC11883961", "about": "(RSC Chemical Biology, 2025)", "key": {"[1]": {"molecular_target": "FKBP12 ligand pocket (FKBP12-LgBiT/MAPRE1-SmBiT in HEK293T cells) (Homo sapiens, UniProt P62942+Q15691)", "sequence (P62942 whole entry)": "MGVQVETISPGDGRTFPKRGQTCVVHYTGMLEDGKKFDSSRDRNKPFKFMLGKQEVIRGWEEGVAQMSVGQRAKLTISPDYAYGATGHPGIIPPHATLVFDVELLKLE", "sequence (Q15691 183-268)": "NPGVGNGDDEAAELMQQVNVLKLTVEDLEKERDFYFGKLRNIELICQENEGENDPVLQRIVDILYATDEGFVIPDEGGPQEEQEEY", "assay": "NanoBiT FKBP ligand competition experiments", "format": "cell-based", "conditions": "80 μM competitor; recruiters up to 20 μM"}, "[2]": {"molecular_target": "FKBP12-LgBiT and MAPRE1 (N183-Y268)-SmBiT in HEK293T cells (Homo sapiens, UniProt P62942+Q15691)", "sequence (P62942 whole entry)": "as the sequence (P62942 whole entry) above", "sequence (Q15691 183-268)": "as the sequence (Q15691 183-268) above", "assay": "NanoBiT FKBP12-MAPRE1 recruitment experiments", "format": "cell-based"}}, "data": [{"smiles": "CO[C@H]1C[C@@H]2CC[C@@H](C)[C@@](O)(O2)C(=O)C(=O)N2CCCC[C@H]2C(=O)O[C@H]([C@H](C)C[C@@H]2CC[C@@H](O)[C@H](OC)C2)CC(=O)[C@H](C)/C=C(\\C)[C@@H](O)[C@@H](OC)C(=O)[C@H](C)C[C@H](C)/C=C/C=C/C=C/1C", "note": "[Rapamycin]", "values": [{"measurement": "ability to outcompete glue recruiters for FKBP12", "setting": "[1]", "result": "able to outcompete even the highest dose of all glue recruiters tested"}, {"measurement": "recruitment of MAPRE1 to FKBP12 in cells", "setting": "[2]", "result": "neither of which measurably recruits MAPRE1 to FKBP12"}]}]}
